This is an account of results in US5416090A, “Method of treating inflammation” (priority 1992, dated 1995).

Assay [1] has as its system delayed type hypersensitivity (picryl chloride induced foot pad swelling). As to the kind of experiment: Murine delayed type hypersensitivity (DTH) response, picryl chloride. The assay is classed as in vivo, mouse (Balb/c). Conditions: for inhibition of DTH response: FIG. 8 legend. As for the experimental part: The activity of ergoline compounds was also evaluated in a murine delayed-type hypersensitivity (DTH) assay. The DTH assay was performed in substantial accordance with the method set forth in Example 1. Briefly, mice were sensitized by topical administration of picryl chloride on day 1 of the assay. On day 4 paw size was determined and recorded and the paw was then challenged with picryl chloride. The challenged paw was remeasured on day 5 to quantitate the DTH response via the increase in paw size.
(§1) Male Balb/c mice (Charles River) weighing 20 to 25 g were used in all DTH studies. When adrenalectomized studies were carried out, sham surgery and adrenalectomized mice were obtained from the vendor. Animals were maintained on a 12:12 hour light:dark cycle. Mice were allowed ad lib access for food (Purina lab chow) and water (normal saline for adrenalectomized animals).
(§2) A DTH response was assessed by measuring the degree of rear foot pad swelling induced by picryl chloride. On day 0, mice were sensitized with 100 μl of 5% picryl chloride (in ethanol), which was applied to a shaved abdomen. Negative control groups were shaved but not sensitized. On day 3, mice were anesthetized with methoxyflurane, and the baseline rear foot pad thickness was measured with a micrometer (Mitutoyo) in μ, and was recorded in duplicate. Fifty μl of picryl chloride was then applied to each pad with a pipet (Rainen) while the animal was unconscious. The negative controls also received picryl chloride at this point to control for primary irritancy. Twenty-four hours later, the mice were sacrificed by CO2 asphyxiation and each rear foot pad was again measured in duplicate, and any evidence of foot pad swelling was calculated. The mean rear foot swelling change of both pads for each animal from days 3 to 4 was used as the index of immune function in the DTH assay.
(§3) Unless otherwise stated all animals were given four subcutaneous doses of test compound just prior to picryl chloride sensitization on day 0, on day 1 and day 2, and just prior to picryl chloride challenge on day 3. In a few experiments, compounds were administered via oral or intraperitoneal routes. All drugs were delivered as suspensions in 1% carboxy-methylcellulose (also contained 0.8% NaCl, 1% polysorbate-80, 1.4% benzyl alcohol). Carboxymethyl-cellulose (1%) was used in control injections.

The subject of assay [2] is D-2 dopamine. Conditions: background; cited from earlier work.
Assay [3] has as its system inflammatory models. Conditions: cited from earlier work.
Assay [4] has as its system α adrenergic receptors. Conditions: background; cited from earlier work.
The test system of assay [5] is carrageenan induced paw swelling. The assay is described as follows: Carrageenan edema model (acute paw inflammation). The assay is classed as in vivo, rat (Lewis). Background: Carrageenan injected into the paw causes an acute inflammation.
Assay [6] deals with dopamine receptor (DTH response). As to the kind of experiment: Reversal of DTH inhibition by dopamine receptor antagonists. The assay is classed as in vivo, mouse. Here is the method:
as §1, §2, §3

Assay [7] relates to dopamine receptor. As to the kind of experiment: Affinity at the dopamine receptor. The assay is classed as binding.
Assay [8] relates to corticosterone. As to the kind of experiment: Serum/plasma corticosterone levels in mice. The assay is classed as in vivo, mouse (Balb/C). Conditions: FIG. 10 Panel A; 1 and 3 hr. following injection. The source says: Dopamine agonists are known to elevate circulating glucocorticoid levels, via activation of the hypothalamo-pituitary-adrenal axis. […] Since glucocorticoids are potential endogenous anti-inflammatory substances, this action is one potential mechanism for the anti-inflammatory effect of the ergolines. However, in subsequent inflammation studies, the anti-inflammatory effects of D-1-isopropyl-6-n-propyl-8β-methylthiomethyl ergoline were retained in mice lacking an adrenal gland and therefore devoid of the increase in circulating corticosterone. (FIG. 10B)
Both Balb/C mice (male, approximately 20 g, Charles Rivers) and Lewis rats (male, approximately 200 g, Charles River or Harlan Sprague Dawley) were used in neuroendocrine studies. Animals were maintained on a 12:12 hour light:dark cycle and were allowed ad lib access for food (Purina lab chow) and water. Experimental groups consisted of 6 to 8 animals.
After dosing with test compounds, animals were sacrificed by decapitation at 1, 3, 8 or 24 hour intervals. Trunk blood was collected, allowed to clot and serum obtained after centrifugation (3000 rpm for 15 min.). Serum was aliquoted and stored at -70° C. for subsequent radioimmunoassays. Serum prolactin was determined by radioimmunoassay. Serum corticosterone levels were determined with a kit designed for such determinations and obtained from ICN.

The mark [9] stands for this setting: Table 2, single oral dose 0.1 mg/kg.
Where [10] appears, read: Table 2, single oral dose 0.3 mg/kg.
Setting [11] is: Table 2, single oral dose 1.0 mg/kg.
The mark [12] stands for this setting: Table 2, single oral dose 3.0 mg/kg.
The mark [13] stands for this setting: Table 1, single oral dose 30.0 mg/kg.
[14] abbreviates: Table 2, single oral dose 30.0 mg/kg.

As for `CCCN1CCC[C@H]2Cc3nc(N)ccc3C[C@@H]21` (relative stereo) [Compound 7, trans-(±)-2-amino-6-propyl-5,5a,6,7,8,9,9a,10-octahydropyrido [2-3 g] quinoline], in assay [1] (10 mg/kg), the “reduction of paw swelling (DTH)” value is recorded as “statistically significant”.

For the compound `CC(C)CC1C(=O)N2CCCC2C2(O)OC(NC(=O)C3C=C4c5cccc6[nH]c(Br)c(c56)CC4N(C)C3)(C(C)C)C(=O)N12` (stereo not drawn) [Bromocriptine, α-bromo-ergocryptine], in assay [2], the “D-2 dopamine agonist activity” value is listed as “D-2 dopamine agonists”. For the same compound, in assay [3], the “basis of activity in inflammatory models of the literature” value was “due to immunosuppressive activity”. In addition, in assay [4], the “action at α adrenergic receptors” value is “act at α adrenergic receptors”. The “% Inhibition” value in assay [5] (setting [9]), in assay [5] (setting [10]), in assay [5] (setting [11]) and in assay [5] (setting [12]) was 0% throughout. Besides, the “Paw Weight Difference” value in assay [5] (setting [9]) came out at 0.923 ± 0.039 g; in assay [5] (setting [10]), 0.937 ± 0.060 g; in assay [5] (setting [11]) it was 0.803 ± 0.046 g; in assay [5] (setting [12]), 0.931 ± 0.067 g. Further, the “activity in the acute inflammation model” value in assay [5] (doses as high as 3 mg/kg, po) was “no activity”.

Consider `CCCN1C[C@H](CSC)C[C@@H]2c3cccc4[nH]nc(c34)C[C@H]21` [Compound 4, D-2-aza-6-n-propyl-8β-methylthiomethyl ergoline], for which the “reduction of paw swelling (DTH)” value in assay [1] (1 mg/kg) was “reduced paw swelling”; in assay [1] (3 mg/kg) it was “statistically significant”; in assay [1] (10 mg/kg), “statistically significant”.

Consider `O=c1[nH]c2ccccc2n1CCCN1CCC(n2c(=O)[nH]c3cc(Cl)ccc32)CC1` [Domperidone], for which, in assay [6] (FIG. 9 Panel B), the “effect on anti-inflammatory activity of D-1-isopropyl-6-n-propyl-8β-methylthiomethyl ergoline” value was “reversed the anti-inflammatory activity”.

Turning to `CCCN1CCC[C@H]2Cc3nc(N)sc3C[C@@H]21` (racemic) [Compound 6, trans-(±)-2-amino-5-n-propyl-4,4a,5,6,7,8,8a,9-octahydrothiazolo [4,5-g] quinoline], the “reduction of paw swelling (DTH)” value in assay [1] (10 mg/kg) was “statistically significant”.

For `CCCCCN1C[C@H](CSC)C[C@@H]2c3cccc4[nH]cc(c34)C[C@H]21` [D-6-n-pentyl-8β-methylthiomethyl ergoline], the anti-inflammatory activity entry in assay [1] (FIGS. 7-9A studies) is “no anti-inflammatory activity”. Moreover, the “affinity at the dopamine receptor” value in assay [7] is on record as “minimal affinity”.

Turning to `CCCN1CC(CO)CC2Cc3n[nH]cc3CC21` (stereo not drawn) [Compound 10, 7-(5-n-propyl-trans-4,4a,5,6,7,8,8a, 9-Octahydro-2H-pyrazolo[3,4-g]quinoline) methanol], the “effect on plasma corticosterone” value in assay [8] was “increase plasma cortiosterone”. Moreover, the “reduction of paw swelling (DTH)” value in assay [1] (3 mg/kg) and in assay [1] (10 mg/kg) was “statistically significant” each time.

On to `CCCN1CCC[C@H]2Cc3nc(N)ncc3C[C@@H]21` (racemic) [Compound 8, trans-(±)-2-amino-6-n-propyl-5,5a,6,7,8,9,9a,10-octahydropyrimido[4,5-g] quinoline], for which the “reduction of paw swelling (DTH)” value in assay [1] (1 mg/kg) is given as “statistically significant decrease in inflammation”. For the same compound, in assay [1], the “inhibition of DTH response” value is “lack of inhibition”.

For the compound `CCCN1CC(CO)=C[C@H]2Cc3n[nH]cc3C[C@@H]21` (relative stereo) [Compound 9, 7-(5-n-propyl-trans-4,4a,5,6,8a,9-hexahydro-2H-pyrazolo[3,4-g)quinoline) methanol], the “reduction of paw swelling (DTH)” value in assay [1] (3 mg/kg) and in assay [1] (10 mg/kg) was “statistically significant” throughout. Also, in assay [1], the “inhibition of DTH response” value is on record as “inhibition”.

As for `CC(C(=O)O)c1cccc(Oc2ccccc2)c1` (stereo not shown) [Fenoprofen], the “effectiveness in suppressing inflammation compared with pergolide” value in assay [5] (30 mg/kg) is recorded as “not as effective as pergolide”. In addition, the % Inhibition (in general, the share of the control response that was lost under treatment) in assay [5] (setting [13]) is reported as 52%; in assay [5] (setting [14]), 55%. The “Paw Weight Difference” value in assay [5] (setting [13]) turned out to be 0.353 ± 0.043 g; in assay [5] (setting [14]), 0.379 ± 0.028 g.

Take `CCN1CCCC1CNC(=O)c1cc(S(N)(=O)=O)ccc1OC` (stereo not shown) [Sulpiride]: the “effect on inflammatory response in animals given 10 mg/kg of compound 10” value in assay [6] (FIG. 9 Panel C, sulpiride 3, 10 and 30 mg/kg) is “partially restored the inflammatory response”.
